Structures are written as SMILES.

On to `O=C(CNS(=O)(=O)Cc1ccccc1)Nc1ccc(Cl)cc1` [DR-14, N-(4-Chloro-phenyl)-2-phenylmethanesulfonylamino-acetamide], for which the melting point was 200 to 201 °C.

Consider `Cc1ccc(S(=O)(=O)NCC(=O)NCc2ccc(Br)cc2F)cc1` [DR-11, N-(4-Bromo-2-fluoro-benzyl)-2-(toluene-4-sulfonylamino)-acetamide], for which the melting point is 123 to 124 °C.

In turn, `Cc1ccc(/C=C/C(=O)NC(=S)NNC(=O)Cc2cccs2)cc1` [LW-4, N—[N′-(2-Thiophen-2-yl-acetyl)-hydrazinocarbothioyl]-3-p-tolyl-acrylamide] came in with a melting point of 212 to 213 °C.

The compound `COc1ccc(NC(=O)CNC(=O)COc2ccc(F)cc2)c(C)c1` [MM-6, 2-(4-Fluoro-phenoxy)-N-[(4-methoxy-2-methyl-phenylcarbamoyl)-methyl]-acetamide] displayed a melting point of 169 to 170 °C.

`O=C(CNS(=O)(=O)Cc1ccccc1)Nc1c(F)cccc1F` [DR-1, N-(2,6-difluorophenyl)-2-phenylmethanesulfonylaminoacetamide]: the melting point lay within 141 to 142 °C.

Regarding `O=C(/C=C/c1c(Cl)cc(Cl)cc1Cl)NC(=S)NNC(=O)Cc1cccs1` [LW-2, N—[N′-(2-Thiophen-2-yl-acetyl)-hydrazinocarbothioyl]-3-(2,4,6-trichloro-phenyl)-acrylamide], the melting point was 219 to 220 °C.

Compound `COc1ccc(/C=C/C(=O)NC(=S)NNC(=O)Cc2cccs2)c(OC)c1` [LW-6, 3-(2,4-Dimethoxy-phenyl)-N—[N′-(2-thiophen-2-yl-acetyl)-hydrazinocarbothioyl]-acrylamide] yielded a melting point of 207 to 208 °C.

As for `Cc1ccc(/C=C/S(=O)(=O)NCC(=O)Nc2ccc(Br)cc2)cc1` [DR-33, N-(4-Bromo-phenyl)-2-(2-p-tolyl-ethenesulfonylamino)-acetamide], the melting point lay within 216 to 219 °C.

With `O=C(CNS(=O)(=O)Cc1ccccc1)Nc1cccc(Br)c1` [DR-12, N-(3-bromophenyl)-2-phenylmethanesulfonylaminoacetamide], the melting point was in the range of 215 to 216 °C.

Consider `Cc1ccccc1CNC(=O)CNC(=O)COc1ccc(Br)cc1` [MM-27, 2-(4-Bromo-phenoxy)-N-[(2-methyl-benzylcarbamoyl)-methyl]-acetamide], for which the melting point is 174 to 175 °C.

The compound `COc1cccc(OC)c1/C=C/C(=O)NC(=S)NNC(=O)c1cccs1` [LW-19, 3-(2,6-Dimethoxy-phenyl)-N—[N′-(thiophene-2-carbonyl)-hydrazinocarbothioyl]-acrylamide] returned a melting point of 209 to 210 °C.

The compound `Cc1ccc(S(=O)(=O)NCC(=O)NCc2ccc(Br)cc2)cc1` [DR-10, N-(4-Bromo-benzyl)-2-(toluene-4-sulfonylamino)-acetamide] displayed a melting point of 207 to 208 °C.

Turning to `COc1cccc(OC)c1/C=C/C(=O)NC(=S)NNC(=O)Cc1cccs1` [LW-10, 3-(2,6-Dimethoxy-phenyl)-N—[N′-(2-thiophen-2-yl-acetyl)-hydrazinocarbothioyl]-acrylamide], the melting point lay within 220 to 221 °C.

Compound `CC(NC(=O)CNS(=O)(=O)Cc1ccccc1)c1ccccc1` (stereo not shown) [DR-3, N-(1-Phenyl-ethyl)-2-phenylmethanesulfonylamino-acetamide] returned a melting point of 147 to 148 °C.

As for `COc1ccc(NC(=O)CNC(=O)COc2ccccc2)c(C)c1` [MM-1, N-[(4-methoxy-2-methylphenylcarbamoyl)methyl]-2-phenoxyacetamide], the melting point was 165 to 166 °C.

As for `O=C(/C=C/c1ccc([N+](=O)[O-])cc1)NC(=S)NNC(=O)Cc1cccs1` [LW-3, 3-(4-Nitro-phenyl)-N—[N′-(2-thiophen-2-yl-acetyl)-hydrazinocarbothioyl]-acrylamide], the melting point lay in the range of 222 to 223 °C.

The compound `O=C(COc1ccc(Br)cc1)NCC(=O)Nc1c(F)cccc1F` [MM-15, 2-(4-Bromo-phenoxy)-N-[(2,6-difluoro-phenylcarbamoyl)-methyl]-acetamide] gave a melting point of 173 to 174 °C.

The compound `O=C(/C=C/c1cc(Br)cc(Br)c1)NC(=S)NNC(=O)c1ccccc1` [LW-23, N—(N′-Benzoyl-hydrazinocarbothioyl)-3-(3,5-dibromo-phenyl)-acrylamide] registered a melting point of 224 to 225 °C.

Regarding `COc1ccc(NC(=O)CNC(=O)COc2ccc(F)cc2)cc1` [MM-12, 2-(4-Fluoro-phenoxy)-N-[(4-methoxy-phenylcarbamoyl)-methyl]-acetamide], the melting point was 185 to 186 °C.

Compound `O=C(/C=C/c1ccc(F)cc1)NC(=S)NNC(=O)Cc1ccccc1` [LW-12, 3-(4-Fluoro-phenyl)-N—(N′-phenylacetyl-hydrazinocarbothioyl)-acrylamide] returned a melting point of 212 to 213 °C.

Compound `O=C(/C=C/c1ccc(Cl)cc1)NC(=S)NNC(=O)Cc1cccs1` [LW-1, 3-(4-Chloro-phenyl)-N—[N′-(2-thiophen-2-yl-acetyl)-hydrazinocarbothioyl]-acrylamide] displayed a melting point of 232 to 233 °C.

With `O=C(COc1ccc(Br)cc1)NCC(=O)Nc1cccc(Cl)c1` [MM-32, 2-(4-Bromo-phenoxy)-N-[(3-chloro-phenylcarbamoyl)-methyl]-acetamide], the melting point was in the range of 205 to 206 °C.

Turning to `O=C(COc1ccc(Oc2ccccc2)cc1)NCC(=O)Nc1c(F)cccc1F` [MM-21, N-[(2,6-Difluoro-phenylcarbamoyl)-methyl]-2-(4-phenoxy-phenoxy)-acetamide], the melting point fell in the range of 164 to 165 °C.

`O=C(/C=C/c1cc(Br)cc(Br)c1)NC(=S)NNC(=O)Cc1cccs1` [LW-7, 3-(3,5-Dibromo-phenyl)-N—[N′-(2-thiophen-2-yl-acetyl)-hydrazinocarbothioyl]-acrylamide] registered a melting point of 212 to 213 °C.

Turning to `COc1cccc(CC(=O)NNC(=S)NC(=O)/C=C/c2cc(Br)cc(Br)c2)c1` [LW-26, 3-(3,5-Dibromo-phenyl)-N-{N′-[2-(3-methoxy-phenyl)-acetyl]-hydrazinocarbothioyl}-acrylamide], the melting point was in the range of 202 to 203 °C.

As to `O=C(/C=C/c1cc(Br)cc(Br)c1)NC(=S)NNC(=O)c1cccs1` [LW-20, 3-(3,5-Dibromo-phenyl)-N—[N′-(thiophene-2-carbonyl)-hydrazinocarbothioyl]-acrylamide], the melting point fell in the range of 217 to 218 °C.

Turning to `O=C(COc1ccc(F)cc1)NCC(=O)NC1CCCCC1` [MM-14, N-Cyclohexylcarbamoylmethyl-2-(4-fluoro-phenoxy)-acetamide], the melting point lay in the range of 184 to 185 °C.

`O=C(COc1ccc(F)cc1)NCC(=O)Nc1ccc(F)cc1` [MM-9, 2-(4-Fluoro-phenoxy)-N-[(4-fluoro-phenylcarbamoyl)-methyl]-acetamide] registered a melting point of 202 to 203 °C.

As to `O=C(COc1ccc(Br)cc1)NCC(=O)Nc1ccc(F)cc1` [MM-8, 2-(4-Bromo-phenoxy)-N-[(4-fluoro-phenylcarbamoyl)-methyl]-acetamide], the melting point was in the range of 213 to 214 °C.

Turning to `O=C(Cc1c(F)cccc1F)NNC(=S)NC(=O)Cc1ccccc1` [LW-28, N-{N′-[2-(2,6-Difluoro-phenyl)-acetyl]-hydrazinocarbothioyl}-2-phenyl-acetamide], the melting point was 174 to 175 °C.

For the compound `O=C(CNC(=O)COc1ccc(Br)cc1)NCc1ccc(Br)cc1F` [MM-29, N-[(4-Bromo-2-fluoro-benzylcarbamoyl)-methyl]-2-(4-bromo-phenoxy)-acetamide], the melting point fell in the range of 179 to 180 °C.

A word on the melting point: it is the temperature, or range, at which the solid turns liquid.

(Values after patent US9216954B2, “Serine racemase inhibitor” (National University Corporation University of Toyama, priority 2012, dated 2015).)
